Measurements published in patent publication US8906829B2, “Synergistic algicidal compositions including hydrazone derivatives and copper” (Dow AgroSciences LLC, priority 2010, dated 2014).

Key:
C. reinhardtii CC-1928 = test: Effect of copper on activity of hydrazones: in vitro growth inhibition of C. reinhardtii in TAP Cu minus / TAP Cu plus medium (Example 10); type: cell-based, Chlamydomonas reinhardtii; conditions: test compound 1 μg/mL, 48 h; for inhibition of growth at 1 µg/mL: Chlamydomonas reinhardtii, TAP Cu minus medium, read-out: % Inhn. Minus Copper Observed; for % Inhn. Plus Copper Observed: TAP Cu plus medium (CuCl2)
Description: In vitro toxicity assays against C. reinhardtii CC-1928 (wild type mt+137c green in dark subclone) obtained from the Chlamydomonas Resource Center at Duke University were conducted using TAP liquid growth medium described by Gorman and Levine Proc. Natl. Acad. Sci. USA 1965, 54, 1665-1669 except that CuSO4.5H2O, normally included as a component of Hutner's trace element stock solution (Hutner et al. Proc. Am. Philos. Soc. 1950, 94, 152-170), was omitted. The TAP medium lacking Cu (TAP Cu minus) was prepared by adding 400 mg NH4Cl, 10 mL of 100× Tris-Acetate (242 g Tris-base and 100 mL glacial acetic acid in 1000 mL milli Q water), and 8.3 mL of 120.5× phosphate buffer (14.34 g K2HPO4 and 7.26 g KH2PO4 in 1000 mL milli Q water) to milli Q water to make a total volume of 1 liter. The medium was treated with 0.5 g Chelex 100 resin (Bio-Rad Analytical grade, 50-100 mesh, sodium form, cat#142-2822) by stirring at room temperature for 1 hour. 900 mL were decanted and 45.9 mg of CaCl2.2H2O, 90 mg of MgSO4.7H2O and 0.9 mL Hutner's trace elements lacking CuSO4.5H2O were added and the solution was filter-sterilized. Medium containing copper (TAP Cu plus) was prepared by adding CuCl2.2H2O to the TAP Cu minus medium at 20 μM. Test compounds were dissolved in dimethylsulfoxide (DMSO) at 2 mg/mL then dilutions in TAP Cu minus and TAP Cu plus media were prepared in sterilized microcentrifuge tubes at 2 μg/mL. 100 μL aliquots of diluted compound were dispensed into flat-bottomed 96-well microtiter plates. C. reinhardtii was maintained under 12 h of light on TAP agar plates at 18° C. A loopful of cells was added to 50 mL of TAP Cu minus medium and the culture incubated with shaking at 200 rpm at 27° C. for 24 h. The culture (10 to 20 mL aliquot) was centrifuged in a bench centrifuge at 2000 rpm for 2 min. The resulting cell pellet was resuspended in 5 mL sterile milli Q water (which had been treated with Chelex 100 resin using 0.5 g resin per liter of water by stirring at room temperature for 1 h), and recentrifuged. The cells were resuspended in TAP Cu minus medium, and the suspension adjusted to 2×10^5 spores per mL. Microtiter plates containing compounds as described above were inoculated with 100 μL of this cell suspension and the plates incubated at 27° C. for 48 h before assessing algal growth by measuring light scattering in a NepheloStar plate-reader. Growth inhibition was determined by comparing growth in the presence of test compound with growth in control wells lacking test compound. Results for growth inhibition by test compounds at 1 μg/mL in TAP Cu plus medium (% Inhn Plus Copper Observed) were compared with predicted values (% Inhn Plus Copper Predicted) that were calculated using the formula set forth by S. R. Colby in Weeds 1967, 15, 20-22 based on results obtained for the same compounds in TAP Cu minus medium (% Inhn Minus Copper Observed). […] Results illustrate that hydrazones and copper produce a synergistic algicidal effect towards C. reinhardtii.

[1] = system: Synechocystis sp. strain 6803; test: Effect of copper on activity of hydrazones: in vitro growth inhibition of Synechocystis in BG-11 Cu minus / Cu plus medium (Example 11); type: cell-based; conditions: 72 h; for % Inhn. Plus Copper Observed: BG-11 Cu plus medium
Description: In vitro toxicity assays against the cyanobacterium (blue-green alga) Synechocystis sp. strain 6803 were conducted using BG-11 medium except that copper micronutrient, normally included as CuSO4.5H2O, was omitted. The medium, termed BG-11 Cu minus, was prepared by dissolving 1.5 g NaNO3, 40 mg K2HPO4, 6 mg citric acid, 1 mg Na2EDTA and 20 mg Na2CO3 in 1 liter of milli Q water and treating the solution with 0.5 g Chelex 100 resin (Bio-Rad Analytical grade, 50-100 mesh, sodium form, cat#142-2822) by stifling at room temperature for 1 h. 900 mL were decanted and 67.5 mg MgSO4.7H2O, 32.4 mg […], 5.4 mg ferric ammonium citrate and 0.9 mL trace metal mix A5 without copper (2.86 g H3BO3, 1.81 g MnCl2.4H2O, 222 mg ZnSO4.7H2O, 390 mg Na2MoO4.2H2O and Co(NO3)2.6H2O in 1 L Milli Q water) was added. The pH was adjusted to 7.1 and the medium was filter-sterilized. Medium containing copper (BG-11 Cu plus) was prepared by adding CuCl2.2H2O to the BG-11 Cu minus medium at 0.2 μM. Test compounds were dissolved in dimethylsulfoxide (DMSO) at 2 mg/mL then appropriate dilutions in BG-11 Cu minus and BG-11 Cu plus media were prepared in sterilized microcentrifuge tubes. 100 μL aliquots were dispensed into flat-bottomed 96-well microtiter plates. Synechocystis was maintained under 24 h of light on BG-11 agar plates at 27° C. A loopful of cells was added to 50 mL of BG-11 Cu minus growth medium and the culture was incubated with shaking at 200 rpm at 27° C. for 24 h. The culture (10 to 20 mL aliquot) was centrifuged in a bench centrifuge at 2400 rpm for 2 min. The resulting cell pellet was resuspended in 5 mL sterile milli Q water (which had been treated with Chelex 100 resin using 0.5 g resin per liter of water by stirring at room temperature for 1 h), and recentrifuged. The cells were resuspended in BG-11 Cu minus medium, and the suspension adjusted to 4×10^5 spores per mL. Microtiter plates containing compounds as described above were inoculated with 100 μL of this cell suspension and the plates incubated at 27° C. for 72 h before assessing algal growth by measuring light scattering in a NepheloStar plate reader. Growth inhibition was determined by comparing growth in the presence of test compound with growth in control wells lacking test compound. Results for growth inhibition by test compounds in BG-11 Cu plus medium (% Inhn Plus Copper Observed) were compared with predicted values (% Inhn Plus Copper Predicted) that were calculated using the formula set forth by S. R. Colby in Weeds 1967, 15, 20-22 based on-results obtained for the same compounds in BG-11 Cu minus medium (% Inhn Minus Copper Observed) and the inhibition attributed to copper chloride alone, as determined by comparing growth in copper-minus and copper-plus media without any test compound across experiments. Results illustrate that hydrazones and copper produce a synergistic algicidal effect towards Synechocystis.

[2] = Synechocystis, Test Concn. 0.05 μg/mL, BG-11 Cu minus medium, read-out: % Inhn. Minus Copper Observed

Row | SMILES | melting point [°C] | inhibition of growth at 1 µg/mL (C. reinhardtii CC-1928) [%] | % Inhn. Plus Copper Observed (C. reinhardtii CC-1928) [%] | inhibition of growth at 0.05 µg/mL [1, 2] [%] | % Inhn. Plus Copper Observed ([1]; Test Concn. 0.05 μg/mL) [%] | inhibition of growth at 0.0125 µg/mL ([1]; Synechocystis, Test Concn. 0.0125 μg/mL, BG-11 Cu minus medium, read-out: % Inhn. Minus Copper Observed) [%] | % Inhn. Plus Copper Observed ([1]; Test Concn. 0.0125 μg/mL) [%]
1 | COc1cc(Br)cc(/C=N/NC(=O)c2cccc(Br)c2)c1O [Compound 19] | – | 12 | 52 | -18 | 43 | – | –
2 | COc1cc(Br)cc(/C=N/NC(=O)c2ccc(C)cc2)c1O [Compound 20] | – | -6 | 94 | 9 | 86 | – | –
3 | C/C(=N\NC(=O)c1ccc(Cl)cc1)c1cccc([N+](=O)[O-])c1O [Compound 23] | 241 to 251 | -37 | 89 | – | – | 27 | 92
4 | O=C(N/N=C/c1cc(C(F)(F)F)cc(Cl)c1O)c1ccccc1O [Compound 30] | 258 to 260 | 29 | 92 | 0 | 92 | – | –
5 | O=C(N/N=C/c1c(O)cccc1Cl)c1ccc([N+](=O)[O-])cc1 [Compound 49] | > 300 | 33 | 93 | – | – | – | –
6 | O=C(N/N=C/c1c(O)cccc1Cl)c1cccc(F)c1 [Compound 69] | 257 to 259 | – | – | – | – | – | –
7 | O=C(N/N=C/c1c(O)cccc1Cl)c1ccc(Cl)cc1 [Compound 70, 4-chlorobenzoic acid [1-(2-chloro-6-hydroxyphenyl)-methylidene]-hydrazide] | 273 to 277 | – | – | – | – | – | –
8 | O=C(N/N=C/c1cc(C(F)(F)F)ccc1O)c1ccccc1O [Compound 71] | 277 to 281 | – | – | – | – | – | –

The next lines start with results.

Row | melting point [°C] | SMILES | inhibition of growth at 1 µg/mL (C. reinhardtii CC-1928) [%] | % Inhn. Plus Copper Observed (C. reinhardtii CC-1928) [%] | inhibition of growth at 0.05 µg/mL [1, 2] [%] | % Inhn. Plus Copper Observed ([1]; Test Concn. 0.05 μg/mL) [%] | inhibition of growth at 0.0125 µg/mL ([1]; Synechocystis, Test Concn. 0.0125 μg/mL, BG-11 Cu minus medium, read-out: % Inhn. Minus Copper Observed) [%] | % Inhn. Plus Copper Observed ([1]; Test Concn. 0.0125 μg/mL) [%]
9 | 165 to 169 | O=C(N/N=C/c1cc(Cl)cc(Cl)c1O)c1cccc(C(F)(F)F)c1 [Compound 22] | -14 | 96 | 48 | 94 | – | –
10 | 216 to 222 | O=C(N/N=C/c1cc(C(F)(F)F)cc(Cl)c1O)c1ccccc1 [Compound 24] | -2 | 90 | 45 | 93 | – | –
11 | 210 to 212 | O=C(N/N=C/c1cc(C(F)(F)F)cc(Cl)c1O)c1cccc(F)c1 [Compound 28] | 12 | 97 | 13 | 96 | – | –
12 | 200 to 202 | O=C(N/N=C/c1cc(C(F)(F)F)cc(Cl)c1O)c1ccc(F)cc1 [Compound 29] | 16 | 96 | 11 | 96 | – | –
